What was measured:
Type in all cases: physicochemical
[1] = LCZ696 under high humidity conditions for ten days
Source text: LCZ696 is highly hygroscopic. […] It is well known that hygroscopicity causes difficulties in granulations, disintegration, dissolution of the solid form during the formulation process, affecting the stability and efficacy of the drug product. Hygroscopic compounds also require more expensive and complex excipients, manufacturing processes, and storage facilities.

[2] = Chemical stability test (HPLC purity under strong light, high temperature, high humidity); parameters: Purity, Valsartan: unit not given here
Source text: On Day 5 and Day 10, respectively, test samples were taken to test their purity.

[3] = Hygroscopy test (25±1° C., RH 80%±2%, 24 hours); settings: for Appearance at Hour Twenty-Four / Weight Increase: 24 hours
Source text: The results are in Table XII.

Change of HPLC purity in stability test ([2]; 10 days at 60° C., 25° C. RH90%±5%, or 4500 lux±500 lux): only slight decreases in purities
Purity, Valsartan ([2]; Humidity 25° C. RH90%, 5 days): 37.05
Purity, Valsartan ([2]; Humidity 25° C. RH90%, 10 days): 37.01
Purity, Valsartan ([2]; Light 4500Lux, 5 days): 37.04
Purity, Valsartan ([2]; Light 4500Lux, 10 days): 36.99
Purity, Valsartan ([2]; Temperature 60° C., 5 days): 37.03
Purity, Valsartan ([2]; Temperature 60° C., 10 days): 36.98
Appearance at Hour Twenty-Four [3]: Almost a liquid
Weight Increase [3]: 22.34%
Appearance at Hour Twenty-Four ([3]; listed as comparative example): almost became a liquid
Weight Increase ([3]; listed as comparative example): more than 15%
Appearance at Hour Zero ([3]; hour zero): Off white powder
Compound: CCCCC(=O)N(Cc1ccc(-c2ccccc2-c2nn[n-]n2)cc1)C(C(=O)[O-])C(C)C.CCCCC(=O)N(Cc1ccc(-c2ccccc2-c2nn[n-]n2)cc1)C(C(=O)[O-])C(C)C.CCOC(=O)C(C)CC(Cc1ccc(-c2ccccc2)cc1)NC(=O)CCC(=O)[O-].CCOC(=O)C(C)CC(Cc1ccc(-c2ccccc2)cc1)NC(=O)CCC(=O)[O-].O.O.O.O.O.[Na+].[Na+].[Na+].[Na+].[Na+].[Na+] (stereo not shown) [Comparative Example]
Hygroscopicity, physical form after exposure [1]: absorbs water and turns into a liquid form
